Assay results taken from US10239843B2 (CANCER RESEARCH TECHNOLOGY LIMITED, priority 2014, dated 2019).

Target: Human Full Length PARG (Homo sapiens (Human), UniProt Q86W56)
Test: PARG enzyme assay (TR-FRET)
Format: biochemical
Conditions: read-out: PARG Biochem IC50 Geomean

Sequence of Human Full Length PARG (Q86W56 whole entry): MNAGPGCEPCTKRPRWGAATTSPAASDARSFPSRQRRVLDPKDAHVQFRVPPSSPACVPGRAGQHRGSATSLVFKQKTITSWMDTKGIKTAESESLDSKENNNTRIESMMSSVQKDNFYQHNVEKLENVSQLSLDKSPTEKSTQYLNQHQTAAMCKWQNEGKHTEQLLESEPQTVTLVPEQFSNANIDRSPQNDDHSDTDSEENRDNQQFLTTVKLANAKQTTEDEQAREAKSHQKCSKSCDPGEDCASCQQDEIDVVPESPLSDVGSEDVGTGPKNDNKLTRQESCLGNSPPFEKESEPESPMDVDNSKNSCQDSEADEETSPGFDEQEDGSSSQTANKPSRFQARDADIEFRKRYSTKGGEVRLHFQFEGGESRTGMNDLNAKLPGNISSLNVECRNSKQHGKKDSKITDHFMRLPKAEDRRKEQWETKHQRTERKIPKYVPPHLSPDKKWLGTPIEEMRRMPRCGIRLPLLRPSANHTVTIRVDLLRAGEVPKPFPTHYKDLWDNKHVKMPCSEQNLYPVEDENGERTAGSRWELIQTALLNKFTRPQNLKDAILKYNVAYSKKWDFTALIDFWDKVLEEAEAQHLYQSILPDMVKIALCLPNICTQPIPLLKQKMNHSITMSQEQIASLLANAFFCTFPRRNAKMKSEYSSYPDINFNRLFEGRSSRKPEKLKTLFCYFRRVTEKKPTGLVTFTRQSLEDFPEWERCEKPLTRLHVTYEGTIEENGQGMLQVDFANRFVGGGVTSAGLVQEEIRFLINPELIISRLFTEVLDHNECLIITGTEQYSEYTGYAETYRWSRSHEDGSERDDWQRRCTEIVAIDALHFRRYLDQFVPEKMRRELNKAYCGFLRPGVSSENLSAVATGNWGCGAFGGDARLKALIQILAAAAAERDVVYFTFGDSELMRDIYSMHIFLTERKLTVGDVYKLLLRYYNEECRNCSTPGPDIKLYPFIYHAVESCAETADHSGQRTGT

Row | IC50 [nM] | SMILES
1 | 714 | Cn1c(=O)c2cc(S(=O)(=O)NC3(C)CC3)ccc2n(Cc2c(F)cccc2F)c1=O [Eample 75]
2 | 9170 | CC1(NS(=O)(=O)c2ccc3[nH]c(=O)[nH]c(=O)c3c2)CC1 [Example 1]
3 | 4740 | Cn1c(=O)c2cc(S(=O)(=O)NC3(C)CC3)ccc2n(C)c1=O [Example 2]
4 | 4960 | Cn1c(=O)c2cc(S(=O)(=O)NC3(C#N)CC3)ccc2n(C)c1=O [Example 3]
5 | 1470 | CCn1c(=O)c2cc(S(=O)(=O)NC3(C)CC3)ccc2n(CC)c1=O [Example 4]
6 | 1820 | CCn1c(=O)c2cc(S(=O)(=O)NC3(C#N)CC3)ccc2n(CC)c1=O [Example 5]
7 | 4110 | CCn1c(=O)n(C)c(=O)c2cc(S(=O)(=O)NC3(C)CC3)ccc21 [Example 9]
8 | 3100 | CCn1c(=O)c2cc(S(=O)(=O)NC3(C)CC3)ccc2n(CC2CCCCC2)c1=O [Example 13]
9 | 1570 | CCn1c(=O)c2cc(S(=O)(=O)NC3(C)CC3)ccc2n(CCOC)c1=O [Example 17]
10 | 4650 | Cn1c(=O)n(CC2CC2)c(=O)c2cc(S(=O)(=O)NC3(C)CC3)ccc21 [Example 20]
11 | 6930 | Cn1c(=O)c(=O)[nH]c2ccc(S(=O)(=O)NC3(C)CC3)cc21 [Example 21, 4-Methyl-N-(1-methylcyclopropyl)-2,3-dioxo-1H-quinoxaline-6-sulfonamide]
12 | 2550 | Cn1c(=O)n(Cc2cccnc2)c(=O)c2cc(S(=O)(=O)NC3(C)CC3)ccc21 [Example 30]
13 | 1140 | Cn1c(=O)n(CC#N)c(=O)c2cc(S(=O)(=O)NC3(C)CC3)ccc21 [Example 31]
14 | 1480 | Cn1c(=O)c2cc(S(=O)(=O)NC3(C)CC3)ccc2n(CC2CCOC2)c1=O (centres unmarked) [Example 37]
15 | 1550 | Cn1c(=O)c2cc(S(=O)(=O)NC3(C)CC3)ccc2n(CC2CCCCO2)c1=O (centres unmarked) [Example 38]
16 | 2790 | Cn1c(=O)c(=O)n(Cc2ccccc2)c2ccc(S(=O)(=O)NC3(C)CC3)cc21 [Example 40, 1-Benzyl-4-methyl-N-(1-methylcyclopropyl)-2,3-dioxo-quinoxaline-6-sulfonamide]
17 | 2450 | Cn1c(=O)c2cc(S(=O)(=O)NC3(C)CC3)ccc2n(CC2(C)COC2)c1=O [Example 42]
18 | 1170 | Cn1c(=O)c2cc(S(=O)(=O)NC3(C)CC3)ccc2n(CCC2CC2)c1=O [Example 43]
19 | 2970 | C#CCn1c(=O)c2cc(S(=O)(=O)NC3(C)CC3)ccc2n(C)c1=O [Example 47]
20 | 750 | Cn1ccnc1Cn1c(=O)n(C)c(=O)c2cc(S(=O)(=O)NC3(C)CC3)ccc21 [Example 48]
21 | 2420 | Cn1c(=O)c2cc(S(=O)(=O)NC3(C)CC3)ccc2n(CC2CCCO2)c1=O (centres unmarked) [Example 49]
22 | 3410 | Cn1c(=O)n(CC2CC2(F)F)c(=O)c2cc(S(=O)(=O)NC3(C)CC3)ccc21 (centres unmarked) [Example 50]
23 | 4160 | Cc1nc2ccc(S(=O)(=O)NC3(C)CC3)cc2c(=O)n1C [Example 51]
24 | 6960 | Cc1nc2ccc(S(=O)(=O)NC3(C)CC3)cc2c(=O)[nH]1 [Example 52]
25 | 7980 | Cn1c(=O)n(Cc2ccncc2)c(=O)c2cc(S(=O)(=O)NC3(C)CC3)ccc21 [Example 53]
26 | 2420 | CC1(NS(=O)(=O)c2ccc3nc(C4CC4)[nH]c(=O)c3c2)CC1 [Example 54]

Row | IC50 [nM] | SMILES
27 | 3340 | Cc1ccccc1Cn1c(=O)n(C)c(=O)c2cc(S(=O)(=O)NC3(C)CC3)ccc21 [Example 56]
28 | 1110 | Cc1cccc(Cn2c(=O)n(C)c(=O)c3cc(S(=O)(=O)NC4(C)CC4)ccc32)c1 [Example 57]
29 | 1570 | Cc1ccc(Cn2c(=O)n(C)c(=O)c3cc(S(=O)(=O)NC4(C)CC4)ccc32)cc1 [Example 58]
30 | 3240 | COc1ccccc1Cn1c(=O)n(C)c(=O)c2cc(S(=O)(=O)NC3(C)CC3)ccc21 [Example 59]
31 | 1270 | Cn1c(=O)c2cc(S(=O)(=O)NC3(C)CC3)ccc2n(Cc2ccccc2Cl)c1=O [Example 62]
32 | 1450 | Cn1c(=O)c2cc(S(=O)(=O)NC3(C)CC3)ccc2n(Cc2ccccc2F)c1=O [Example 65]
33 | 1140 | Cn1c(=O)c2cc(S(=O)(=O)NC3(C)CC3)ccc2n(Cc2cccc(C#N)c2)c1=O [Example 69]
34 | 2390 | Cn1c(=O)c2cc(S(=O)(=O)NC3(C)CC3)ccc2n(Cc2ccccc2C(F)(F)F)c1=O [Example 71]
35 | 2100 | Cn1c(=O)c2cc(S(=O)(=O)NC3(C)CC3)ccc2n(Cc2c(Cl)cccc2Cl)c1=O [Example 74]
36 | 1680 | Cc1cc(C)cc(Cn2c(=O)n(C)c(=O)c3cc(S(=O)(=O)NC4(C)CC4)ccc32)c1 [Example 77]
37 | 621 | COc1cc(Cn2c(=O)n(C)c(=O)c3cc(S(=O)(=O)NC4(C)CC4)ccc32)cc(OC)c1 [Example 78]
38 | 1840 | CC(C)Cc1nc2ccc(S(=O)(=O)NC3(C)CC3)cc2c(=O)n1C [Example 81]
39 | 5770 | Cn1c(=O)c2cc(S(=O)(=O)NC3(C)CC3)ccc2n(Cc2ccccn2)c1=O [Example 82]
40 | 1330 | Cn1c(=O)c2cc(S(=O)(=O)NC3(C)CC3)ccc2n(Cc2cccnc2)c1=O [Example 83]
41 | 2370 | Cn1c(=O)c2cc(S(=O)(=O)NC3(C)CC3)ccc2n(Cc2ccncc2)c1=O [Example 84]
42 | 2250 | Cn1c(=O)n(CC(=O)Nc2ccccc2)c(=O)c2cc(S(=O)(=O)NC3(C)CC3)ccc21 [Example 85]
43 | 5470 | Cn1c(=O)n(CC(=O)N2CCC[C@H]2C(N)=O)c(=O)c2cc(S(=O)(=O)NC3(C)CC3)ccc21 [Example 86]
44 | 5890 | Cn1c(=O)n(Cc2ccc(C(N)=O)cc2)c(=O)c2cc(S(=O)(=O)NC3(C)CC3)ccc21 [Example 89]
45 | 4130 | Cn1c(=O)c2cc(S(=O)(=O)NC3(C)CC3)ccc2n(CC(=O)Nc2ccccc2)c1=O [Example 92]
46 | 758 | Cn1c(=O)c2cc(S(=O)(=O)NC3(C)CC3)ccc2n(Cc2noc(C(N)=O)n2)c1=O [Example 95]
47 | 2190 | Cn1c(-c2ccccc2)nc2ccc(S(=O)(=O)NC3(C)CC3)cc2c1=O [Example 97]
48 | 1280 | Cn1c(=O)c2cc(S(=O)(=O)NC3(C)CC3)ccc2n(Cc2ccc(C#N)c(F)c2)c1=O [Example 100]
49 | 5190 | Cc1cc(Cn2c(=O)c3cc(S(=O)(=O)NC4(C)CC4)ccc3n(C)c2=O)no1 [Example 103]
50 | 1430 | Cc1cc(Cn2c(=O)n(C)c(=O)c3cc(S(=O)(=O)NC4(C)CC4)ccc32)no1 [Example 105]
51 | 3880 | Cn1cc(NC(=O)Cn2c(=O)n(C)c(=O)c3cc(S(=O)(=O)NC4(C)CC4)ccc32)cn1 [Example 106]
52 | 8940 | Cn1c(=O)c2cc(S(=O)(=O)NC3(C)CC3)ccc2n(CC(=O)c2ccc(O)cc2)c1=O [Example 107]

Row | IC50 [nM] | SMILES
53 | 7800 | Cn1c(=O)n(Cc2cnccn2)c(=O)c2cc(S(=O)(=O)NC3(C)CC3)ccc21 [Example 108]
54 | 6700 | CCN(CC)c1ccc(C(=O)Cn2c(=O)c3cc(S(=O)(=O)NC4(C)CC4)ccc3n(C)c2=O)cc1 [Example 110]
55 | 5710 | Cn1c(=O)n(Cc2nc3ccccc3[nH]2)c(=O)c2cc(S(=O)(=O)NC3(C)CC3)ccc21 [Example 112]
56 | 7350 | Cn1ccnc1Cn1c(=O)c2cc(S(=O)(=O)NC3(C)CC3)ccc2n(C)c1=O [Example 113]
57 | 1510 | Cn1c(=O)n(CC(=O)c2ccc(N3CCCC3)cc2)c(=O)c2cc(S(=O)(=O)NC3(C)CC3)ccc21 [Example 114]
58 | 1050 | Cn1c(=O)c2cc(S(=O)(=O)NC3(C)CC3)ccc2n(Cc2nc3ccccc3[nH]2)c1=O [Example 116]
59 | 4810 | Cn1c(=O)c2cc(S(=O)(=O)NC3(C)CC3)ccc2n(CC(=O)c2ccc(N3CCCC3)cc2)c1=O [Example 117]
60 | 1420 | Cn1c(=O)c2cc(S(=O)(=O)NC3(C)CC3)ccc2n(Cc2noc(C(C)(C)C)n2)c1=O [Example 119]
61 | 2540 | Cc1noc(C)c1Cn1c(=O)n(C)c(=O)c2cc(S(=O)(=O)NC3(C)CC3)ccc21 [Example 121]
62 | 2420 | Cc1cc(Cn2c(=O)c3cc(S(=O)(=O)NC4(C)CC4)ccc3n(C)c2=O)n(C)n1 [Example 123]
63 | 1230 | Cn1nccc1Cn1c(=O)n(C)c(=O)c2cc(S(=O)(=O)NC3(C)CC3)ccc21 [Example 125]
64 | 5100 | CC1(NS(=O)(=O)c2ccc3c(c2)[nH]c(=O)c(=O)n3Cc2ccc(F)cc2)CC1 [Example 128, 1-[(4-Fluorophenyl)methyl]-N-(1-methylcyclopropyl)-2,3-dioxo-4H-quinoxaline-6-sulfonamide]
65 | 3360 | Cn1c(=O)c(=O)n(Cc2ccc(F)cc2)c2ccc(S(=O)(=O)NC3(C)CC3)cc21 [Example 130, 1-[(4-Fluorophenyl)methyl]-4-methyl-N-(1-methylcyclopropyl)-2,3-dioxo-quinoxaline-6-sulfonamide]
66 | 760 | Cc1nc(-c2ccccc2)c(Cn2c(=O)n(C)c(=O)c3cc(S(=O)(=O)NC4(C)CC4)ccc32)s1 [Example 134]
67 | 1110 | CC#CCn1c(=O)n(C)c(=O)c2cc(S(=O)(=O)NC3(C)CC3)ccc21 [Example 136]
68 | 907 | Cc1nc(C)c(Cn2c(=O)c3cc(S(=O)(=O)NC4(C)CC4)ccc3n(C)c2=O)s1 [Example 142]
69 | 1600 | Cn1c(=O)n(Cc2cnc(Cl)s2)c(=O)c2cc(S(=O)(=O)NC3(C)CC3)ccc21 [Example 144]
70 | 671 | Cn1c(=O)c2cc(S(=O)(=O)NC3(C)CC3)ccc2n(Cc2nccs2)c1=O [Example 146]
71 | 1210 | Cn1c(=O)n(Cc2cncs2)c(=O)c2cc(S(=O)(=O)NC3(C)CC3)ccc21 [Example 147]
72 | 855 | Cn1c(=O)c2cc(S(=O)(=O)NC3(C)CC3)ccc2n(Cc2cscn2)c1=O [Example 148]
73 | 4780 | Cc1csc(Cn2c(=O)c3cc(S(=O)(=O)NC4(C)CC4)ccc3n(C)c2=O)n1 [Example 150]
74 | 3310 | Cn1cncc1Cn1c(=O)c2cc(S(=O)(=O)NC3(C)CC3)ccc2n(C)c1=O [Example 154]
75 | 700 | Cc1cc(COc2nc3ccc(S(=O)(=O)NC4(C)CC4)cc3c(=O)n2Cc2c(C)noc2C)n(C)n1 [Example 167]
76 | 4410 | Cn1c(=O)c2cc(S(=O)(=O)NC3(C)CC3)ccc2n(CC#N)c1=O [Example 175]
77 | 725 | Cc1nc(C(F)(F)F)c(Cn2c(=O)c3cc(S(=O)(=O)NC4(C)CC4)ccc3n(C)c2=O)s1 [Example 179]
